ChEMBL document CHEMBL1147101, “Development and persistence of antimicrobial resistance in Pseudomonas aeruginosa: a longitudinal observation in mechanically ventilated patients” (Antimicrob Agents Chemother, 2007)
Activity calls are given as the source filed them. No cut-off for these calls is given here.

What was measured:
Assay type in all cases: functional, organism-based
Conditions in all cases: Trachea
Pseudomonas aeruginosa [1] = assay: Antimicrobial activity against Pseudomonas aeruginosa 1A9 tracheal isolates from mechanically ventilated tuberculosis patient
Pseudomonas aeruginosa [2] = assay: Antimicrobial activity against Pseudomonas aeruginosa 1B9 tracheal isolates from mechanically ventilated tuberculosis patient
Pseudomonas aeruginosa [3] = assay: Antimicrobial activity against Pseudomonas aeruginosa 13D11 tracheal isolates from mechanically ventilated chronic respiratory insufficiency patient
Pseudomonas aeruginosa [4] = assay: Antimicrobial activity against Pseudomonas aeruginosa 13E1 tracheal isolates from mechanically ventilated chronic respiratory insufficiency patient
Pseudomonas aeruginosa [5] = assay: Antimicrobial activity against Pseudomonas aeruginosa 2C2 tracheal isolates from mechanically ventilated tuberculosis patient
Pseudomonas aeruginosa [6] = assay: Antimicrobial activity against Pseudomonas aeruginosa 2A3 tracheal isolates from mechanically ventilated tuberculosis patient
Pseudomonas aeruginosa [7] = assay: Antimicrobial activity against Pseudomonas aeruginosa 2A5 tracheal isolates from mechanically ventilated tuberculosis patient
Pseudomonas aeruginosa [8] = assay: Antimicrobial activity against Pseudomonas aeruginosa 2F6 tracheal isolates from mechanically ventilated tuberculosis patient
Pseudomonas aeruginosa [9] = assay: Antimicrobial activity against Pseudomonas aeruginosa 2A7 tracheal isolates from mechanically ventilated tuberculosis patient
Pseudomonas aeruginosa [10] = assay: Antimicrobial activity against Pseudomonas aeruginosa 2A9 tracheal isolates from mechanically ventilated tuberculosis patient
Pseudomonas aeruginosa [11] = assay: Antimicrobial activity against Pseudomonas aeruginosa 65.68-1 tracheal isolates from mechanically ventilated tuberculosis patient
Pseudomonas aeruginosa [12] = assay: Antimicrobial activity against Pseudomonas aeruginosa 65.68-2 tracheal isolates from mechanically ventilated tuberculosis patient
Pseudomonas aeruginosa [13] = assay: Antimicrobial activity against Pseudomonas aeruginosa 5H6 tracheal isolates from mechanically ventilated chronic respiratory insufficiency patient
Pseudomonas aeruginosa [14] = assay: Antimicrobial activity against Pseudomonas aeruginosa 65.68-4 tracheal isolates from mechanically ventilated tuberculosis patient
Pseudomonas aeruginosa [15] = assay: Antimicrobial activity against Pseudomonas aeruginosa 2A5 tracheal isolates from mechanically ventilated chronic respiratory insufficiency patient
Pseudomonas aeruginosa [16] = assay: Antimicrobial activity against Pseudomonas aeruginosa 12A7 tracheal isolates from mechanically ventilated chronic respiratory insufficiency patient
Pseudomonas aeruginosa [17] = assay: Antimicrobial activity against Pseudomonas aeruginosa 12B2 tracheal isolates from mechanically ventilated chronic respiratory insufficiency patient
Pseudomonas aeruginosa [18] = assay: Antimicrobial activity against Pseudomonas aeruginosa 15H5 tracheal isolates from mechanically ventilated chronic respiratory insufficiency patient
Pseudomonas aeruginosa [19] = assay: Antimicrobial activity against Pseudomonas aeruginosa 19B3 tracheal isolates from mechanically ventilated chronic respiratory insufficiency patient
Pseudomonas aeruginosa [20] = assay: Antimicrobial activity against Pseudomonas aeruginosa 19B6 tracheal isolates from mechanically ventilated chronic respiratory insufficiency patient
Pseudomonas aeruginosa [21] = assay: Antimicrobial activity against Pseudomonas aeruginosa 19C7 tracheal isolates from mechanically ventilated chronic respiratory insufficiency patient
Pseudomonas aeruginosa [22] = assay: Antimicrobial activity against Pseudomonas aeruginosa 19D9 tracheal isolates from mechanically ventilated chronic respiratory insufficiency patient
Pseudomonas aeruginosa [23] = assay: Antimicrobial activity against Pseudomonas aeruginosa 3D1 tracheal isolates from mechanically ventilated chronic respiratory insufficiency patient
Pseudomonas aeruginosa [24] = assay: Antimicrobial activity against Pseudomonas aeruginosa 3E2 tracheal isolates from mechanically ventilated chronic respiratory insufficiency patient
Pseudomonas aeruginosa [25] = assay: Antimicrobial activity against Pseudomonas aeruginosa 5G3 tracheal isolates from mechanically ventilated chronic respiratory insufficiency patient
Pseudomonas aeruginosa [26] = assay: Antimicrobial activity against Pseudomonas aeruginosa 8A2 tracheal isolates from mechanically ventilated chronic respiratory insufficiency patient
Pseudomonas aeruginosa [27] = assay: Antimicrobial activity against Pseudomonas aeruginosa 8A12 tracheal isolates from mechanically ventilated chronic respiratory insufficiency patient
Pseudomonas aeruginosa [28] = assay: Antimicrobial activity against Pseudomonas aeruginosa 8C4 tracheal isolates from mechanically ventilated chronic respiratory insufficiency patient
Pseudomonas aeruginosa [29] = assay: Antimicrobial activity against Pseudomonas aeruginosa 8B11 tracheal isolates from mechanically ventilated chronic respiratory insufficiency patient
Pseudomonas aeruginosa [30] = assay: Antimicrobial activity against Pseudomonas aeruginosa 9A3 tracheal isolates from mechanically ventilated chronic respiratory insufficiency patient
Pseudomonas aeruginosa [31] = assay: Antimicrobial activity against Pseudomonas aeruginosa 9A10 tracheal isolates from mechanically ventilated chronic respiratory insufficiency patient
Pseudomonas aeruginosa [32] = assay: Antimicrobial activity against Pseudomonas aeruginosa 9B2 tracheal isolates from mechanically ventilated chronic respiratory insufficiency patient
Pseudomonas aeruginosa [33] = assay: Antimicrobial activity against Pseudomonas aeruginosa 9B5 tracheal isolates from mechanically ventilated chronic respiratory insufficiency patient
Pseudomonas aeruginosa [34] = assay: Antimicrobial activity against Pseudomonas aeruginosa 10A6 tracheal isolates from mechanically ventilated chronic respiratory insufficiency patient
Pseudomonas aeruginosa [35] = assay: Antimicrobial activity against Pseudomonas aeruginosa 10A9 tracheal isolates from mechanically ventilated chronic respiratory insufficiency patient
Pseudomonas aeruginosa [36] = assay: Antimicrobial activity against Pseudomonas aeruginosa 10B1 tracheal isolates from mechanically ventilated chronic respiratory insufficiency patient
Pseudomonas aeruginosa [37] = assay: Antimicrobial activity against Pseudomonas aeruginosa 24G1 tracheal isolates from mechanically ventilated chronic respiratory insufficiency patient
Pseudomonas aeruginosa [38] = assay: Antimicrobial activity against Pseudomonas aeruginosa 29F6 tracheal isolates from mechanically ventilated chronic respiratory insufficiency patient
Pseudomonas aeruginosa [39] = assay: Antimicrobial activity against Pseudomonas aeruginosa 29G6 tracheal isolates from mechanically ventilated chronic respiratory insufficiency patient
Pseudomonas aeruginosa [40] = assay: Antimicrobial activity against Pseudomonas aeruginosa 29G7 tracheal isolates from mechanically ventilated chronic respiratory insufficiency patient
Pseudomonas aeruginosa [41] = assay: Antimicrobial activity against Pseudomonas aeruginosa 29G8 tracheal isolates from mechanically ventilated chronic respiratory insufficiency patient
Pseudomonas aeruginosa [42] = assay: Antimicrobial activity against Pseudomonas aeruginosa 19E2 tracheal isolates from mechanically ventilated chronic respiratory insufficiency patient
Pseudomonas aeruginosa [43] = assay: Antimicrobial activity against Pseudomonas aeruginosa 19E9 tracheal isolates from mechanically ventilated chronic respiratory insufficiency patient
Pseudomonas aeruginosa [44] = assay: Antimicrobial activity against Pseudomonas aeruginosa 22D2 tracheal isolates from mechanically ventilated chronic respiratory insufficiency patient
Pseudomonas aeruginosa [45] = assay: Antimicrobial activity against Pseudomonas aeruginosa 22D6 tracheal isolates from mechanically ventilated chronic respiratory insufficiency patient
Pseudomonas aeruginosa [46] = assay: Antimicrobial activity against Pseudomonas aeruginosa 22D9 tracheal isolates from mechanically ventilated chronic respiratory insufficiency patient
Pseudomonas aeruginosa [47] = assay: Antimicrobial activity against Pseudomonas aeruginosa 22E1 tracheal isolates from mechanically ventilated chronic respiratory insufficiency patient
Pseudomonas aeruginosa [48] = assay: Antimicrobial activity against Pseudomonas aeruginosa 22E3 tracheal isolates from mechanically ventilated chronic respiratory insufficiency patient
Pseudomonas aeruginosa [49] = assay: Antimicrobial activity against Pseudomonas aeruginosa 22C5 tracheal isolates from mechanically ventilated chronic respiratory insufficiency patient
Pseudomonas aeruginosa [50] = assay: Antimicrobial activity against Pseudomonas aeruginosa 24E5 tracheal isolates from mechanically ventilated chronic respiratory insufficiency patient
Pseudomonas aeruginosa [51] = assay: Antimicrobial activity against Pseudomonas aeruginosa P21.21 tracheal isolates from mechanically ventilated tuberculosis patient
Pseudomonas aeruginosa [52] = assay: Antimicrobial activity against Pseudomonas aeruginosa P21.23 tracheal isolates from mechanically ventilated tuberculosis patient
Pseudomonas aeruginosa [53] = assay: Antimicrobial activity against Pseudomonas aeruginosa 65.33-1 tracheal isolates from mechanically ventilated tuberculosis patient
Pseudomonas aeruginosa [54] = assay: Antimicrobial activity against Pseudomonas aeruginosa 65.33-2 tracheal isolates from mechanically ventilated tuberculosis patient
Pseudomonas aeruginosa [55] = assay: Antimicrobial activity against Pseudomonas aeruginosa 65.33-4 tracheal isolates from mechanically ventilated tuberculosis patient
Pseudomonas aeruginosa [56] = assay: Antimicrobial activity against Pseudomonas aeruginosa 65.36-1 tracheal isolates from mechanically ventilated tuberculosis patient
Pseudomonas aeruginosa [57] = assay: Antimicrobial activity against Pseudomonas aeruginosa 65.36-3 tracheal isolates from mechanically ventilated tuberculosis patient
Pseudomonas aeruginosa [58] = assay: Antimicrobial activity against Pseudomonas aeruginosa 65.36-4 tracheal isolates from mechanically ventilated tuberculosis patient
Pseudomonas aeruginosa [59] = assay: Antimicrobial activity against Pseudomonas aeruginosa 65.38-1 tracheal isolates from mechanically ventilated tuberculosis patient

## CC(C)(O/N=C(\C(=O)N[C@@H]1C(=O)N2C(C(=O)[O-])=C(C[n+]3ccccc3)CS[C@H]12)c1csc(N)n1)C(=O)O
Pseudomonas aeruginosa [1]
  Activity: inactive
Pseudomonas aeruginosa [2]
  Activity: inactive
Pseudomonas aeruginosa [3]
  Activity: Active
Pseudomonas aeruginosa [4]
  Activity: Active
Pseudomonas aeruginosa [5]
  Activity: Active
Pseudomonas aeruginosa [6]
  Activity: Active
Pseudomonas aeruginosa [7]
  Activity: Active
Pseudomonas aeruginosa [8]
  Activity: inactive
Pseudomonas aeruginosa [9]
  Activity: inactive
Pseudomonas aeruginosa [10]
  Activity: inactive
Pseudomonas aeruginosa [11]
  Activity: Active
Pseudomonas aeruginosa [12]
  Activity: Active
Pseudomonas aeruginosa [13]
  Activity: Active
Pseudomonas aeruginosa [14]
  Activity: Active
Pseudomonas aeruginosa [15]
  Activity: Active
Pseudomonas aeruginosa [16]
  Activity: Active
Pseudomonas aeruginosa [17]
  Activity: Active
Pseudomonas aeruginosa [18]
  Activity: Active
Pseudomonas aeruginosa [19]
  Activity: Active
Pseudomonas aeruginosa [20]
  Activity: Active
Pseudomonas aeruginosa [21]
  Activity: Active
Pseudomonas aeruginosa [22]
  Activity: Active
Pseudomonas aeruginosa [23]
  Activity: Active
Pseudomonas aeruginosa [24]
  Activity: Active
Pseudomonas aeruginosa [25]
  Activity: Active
Pseudomonas aeruginosa [26]
  Activity: Active
Pseudomonas aeruginosa [27]
  Activity: Active
Pseudomonas aeruginosa [28]
  Activity: Active
Pseudomonas aeruginosa [29]
  Activity: Active
Pseudomonas aeruginosa [30]
  Activity: Active
Pseudomonas aeruginosa [31]
  Activity: Active
Pseudomonas aeruginosa [32]
  Activity: Active
Pseudomonas aeruginosa [33]
  Activity: Active
Pseudomonas aeruginosa [34]
  Activity: Active
Pseudomonas aeruginosa [35]
  Activity: Active
Pseudomonas aeruginosa [36]
  Activity: Active
Pseudomonas aeruginosa [37]
  Activity: Active
Pseudomonas aeruginosa [38]
  Activity: Active
Pseudomonas aeruginosa [39]
  Activity: Active
Pseudomonas aeruginosa [40]
  Activity: Active
Pseudomonas aeruginosa [41]
  Activity: Active
Pseudomonas aeruginosa [42]
  Activity: Active
Pseudomonas aeruginosa [43]
  Activity: Active
Pseudomonas aeruginosa [44]
  Activity: Active
Pseudomonas aeruginosa [45]
  Activity: Active
Pseudomonas aeruginosa [46]
  Activity: Active
Pseudomonas aeruginosa [47]
  Activity: Active
Pseudomonas aeruginosa [48]
  Activity: Active
Pseudomonas aeruginosa [49]
  Activity: Active
Pseudomonas aeruginosa [50]
  Activity: Active
Pseudomonas aeruginosa [51]
  Activity: Active
Pseudomonas aeruginosa [52]
  Activity: Active
Pseudomonas aeruginosa [53]
  Activity: Active
Pseudomonas aeruginosa [54]
  Activity: Active
Pseudomonas aeruginosa [55]
  Activity: Active
Pseudomonas aeruginosa [56]
  Activity: Active
Pseudomonas aeruginosa [57]
  Activity: Active
Pseudomonas aeruginosa [58]
  Activity: inactive
Pseudomonas aeruginosa [59]
  Activity: inactive
